The values below are quoted from earlier work in patent US20110105453A1, “Superoxide Dismutase Mimics For The Treatment Of Optic Nerve And Retinal Damage” (ALCON, INC., priority 2003, published 2011).

Data set [1] has as its system rat ocular ischemia-reperfusion model. The conditions noted are these: intravitreal injections (SOD protein).
In the next data set the test system is cytochrome c oxidase. The conditions noted are these: uncouples mitochondrial respiration.
Data set [2] relates to NADH-coenzyme Q1 reductase. The conditions noted are these: uncouples mitochondrial respiration.
Data set [3] has as its system light-induced retinal damage in albino rats.

For the compound `CNC(=S)NC` [dimethylthiourea], the functional protection in data set [1] was 40%.

Consider `NCCc1c[nH]c2c1C(=O)C(=O)C=C2` [T-4,5-D, tryptamine 4,5-dione], for which the “inhibition of cytochrome c oxidase” value in the data set with cytochrome c oxidase is given as “irreversible inhibition”. In addition, in the data set on tryptophan hydroxylase, the “inactivation of tryptophan hydroxylase” value is given as “irreversibly inactivates”. Further, in data set [2], the “inhibition of NADH-coenzyme Q1 reductase” value is recorded as “irreversible inhibition”.

`CC1(C)CC(O)CC(C)(C)N1[O]` [4-hydroxy-2,2,6,6-tetramethylpiperidine-1-oxyl]: in data set [3], the “inhibition of light-induced retinal damage” value was “inhibited light-induced retinal damage”.
